Assay results: ChEMBL document CHEMBL1121687, “2-Benzodioxinylaminoethanols: a new class of beta-adrenergic blocking and antihypertensive agents” (J Med Chem, 1981)
Calls of active or inactive are those of the source. The rule behind the calls is not given here.

What was measured:
Rattus norvegicus [1] = assay: Change in diastolic blood pressure in anesthetized spontaneous hypertensive rats when 5 mg/kg of compound was administered intravenously; assay type: functional, Artery; settings: route intravenous
[2] = target: Beta-1 adrenergic receptor (Cavia porcellus) (UniProt B0FL73); assay: (§1) Antagonist activity of compound against Beta-1 adrenergic receptor in isolated guinea pig left atria; assay type: functional
Rattus norvegicus [3] = assay: Duration of action of 2 mg/kg intravenous dose of compound was determined in SHR test for antihypertensive activity in rats; assay type: functional
Rattus norvegicus [4] = assay: Change in systolic blood pressure in anesthetized spontaneous hypertensive rats when 2.5 mg/kg of compound was administered intravenously; settings: route intravenous
[5] = target: Beta-2 adrenergic receptor (Cavia porcellus) (UniProt Q8K4Z4); assay: Antagonist activity of compound (10e-4 mol/L) against beta 2-adrenergic receptor in isolated guinea pig trachea; Inactive at a concentration of 10e-4 M/L; assay type: functional, tissue-based
Rattus norvegicus [6] = assay: Duration of action of 5 mg/kg intravenous dose of compound was determined in SHR test for antihypertensive activity in rats; assay type: functional
Rattus norvegicus [7] = assay: Change in systolic blood pressure in anesthetized spontaneous hypertensive rats when 2.5 mg/kg of compound was administered intravenously; settings: route intravenous; remark: listed apart in the source
Rattus norvegicus [8] = assay: Change in diastolic blood pressure in anesthetized spontaneous hypertensive rats when 2 mg/kg of compound was administered intravenously; assay type: functional, Artery; settings: route intravenous
Rattus norvegicus [9] = assay: Change in systolic blood pressure in anesthetized spontaneous hypertensive rats when 10 mg/kg of compound was administered intravenously; assay type: functional, Artery; settings: route intravenous
[10] = target: Beta-1 adrenergic receptor (Cavia porcellus, UniProt B0FL73); assay: as §1; assay type: functional; settings: read-out: pA2 app (converted)
Canis lupus familiaris = assay: Dose required to induce at least 50% inhibition of the isoprenaline-induced effect, administered intravenously
Rattus norvegicus [11] = assay: Change in diastolic blood pressure in anesthetized spontaneous hypertensive rats when 10 mg/kg of compound was administered intravenously; assay type: functional, Artery; settings: route intravenous
Rattus norvegicus [12] = assay: Duration of action of 10 mg/kg intravenous dose of compound was determined in SHR test for antihypertensive activity in rats; assay type: functional
[13] = target: Beta-2 adrenergic receptor (Cavia porcellus) (UniProt Q8K4Z4); assay: Antagonist activity of compound against Beta-2 adrenergic receptor in isolated guinea pig trachea; Inactive at a concentration of 10e-4 M/L; assay type: functional, tissue-based
Rattus norvegicus [14] = assay: Change in systolic blood pressure in anesthetized spontaneous hypertensive rats when 20 mg/kg of compound was administered intravenously; assay type: functional, Artery; settings: route intravenous
Rattus norvegicus [15] = assay: Change in diastolic blood pressure in anesthetized spontaneous hypertensive rats when 20 mg/kg of compound was administered intravenously; assay type: functional, Artery; settings: route intravenous
Rattus norvegicus [16] = organism: Rattus norvegicus; assay: Duration of action of compound was determined for antihypertensive action in rats; assay type: functional
Rattus norvegicus [17] = assay: Change in systolic blood pressure in anesthetized spontaneous hypertensive rats when 5 mg/kg of compound was administered intravenously; assay type: functional, Artery; settings: route intravenous
Rattus norvegicus [18] = assay: Duration of action of 20 mg/kg intravenous dose of compound was determined in SHR test for antihypertensive activity in rats; assay type: functional
[19] = tested on: Beta-2 adrenergic receptor (Cavia porcellus); assay: Antagonist activity of compound against beta-2 adrenergic receptor in isolated guinea pig trachea; Inactive at a concentration of 10e-4 M/L
[20] = target: Beta-2 adrenergic receptor (Cavia porcellus) (UniProt Q8K4Z4); assay: Antagonist activity of compound against Beta-2 adrenergic receptor in isolated guinea pig trachea; inactive; assay type: functional, tissue-based

Beta-2 adrenergic receptor (Cavia porcellus) (UniProt Q8K4Z4), sequence (Q8K4Z4 whole entry, looked up): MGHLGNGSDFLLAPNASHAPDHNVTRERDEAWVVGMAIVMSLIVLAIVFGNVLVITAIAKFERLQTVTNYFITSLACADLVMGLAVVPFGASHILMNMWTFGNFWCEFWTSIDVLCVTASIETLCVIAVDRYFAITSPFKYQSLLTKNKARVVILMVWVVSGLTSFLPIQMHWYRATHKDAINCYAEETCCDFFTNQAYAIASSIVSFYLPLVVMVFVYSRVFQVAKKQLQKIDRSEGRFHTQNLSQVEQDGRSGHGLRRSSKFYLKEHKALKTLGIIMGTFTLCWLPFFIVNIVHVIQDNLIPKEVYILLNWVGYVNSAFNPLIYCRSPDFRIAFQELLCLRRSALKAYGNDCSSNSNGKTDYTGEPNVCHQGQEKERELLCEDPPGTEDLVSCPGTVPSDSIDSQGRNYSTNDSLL
Beta-1 adrenergic receptor, sequence (B0FL73 whole entry): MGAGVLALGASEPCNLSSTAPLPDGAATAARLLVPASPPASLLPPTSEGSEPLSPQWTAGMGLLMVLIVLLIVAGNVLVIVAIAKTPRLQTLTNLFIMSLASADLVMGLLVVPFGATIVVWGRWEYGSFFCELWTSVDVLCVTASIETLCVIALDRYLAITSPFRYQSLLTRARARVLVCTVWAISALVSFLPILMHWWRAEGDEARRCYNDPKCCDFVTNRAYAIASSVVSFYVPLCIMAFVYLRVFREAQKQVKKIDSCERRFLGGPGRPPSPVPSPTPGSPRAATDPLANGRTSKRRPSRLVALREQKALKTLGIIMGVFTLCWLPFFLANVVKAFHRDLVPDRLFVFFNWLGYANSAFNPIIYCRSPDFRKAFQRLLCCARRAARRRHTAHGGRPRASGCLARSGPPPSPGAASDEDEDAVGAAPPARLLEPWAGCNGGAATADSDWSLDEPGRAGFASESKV
Beta-1 adrenergic receptor (Cavia porcellus), sequence (B0FL73 1-467): as the sequence (B0FL73 whole entry) above

Row | Structure (SMILES) | Change in BP (Rattus norvegicus [1]) | pD2 app [2] | Duration of action (Rattus norvegicus [3]) | Change in BP (Rattus norvegicus [4]) | Duration of action (Rattus norvegicus [6]) | Change in BP (Rattus norvegicus [8]) | Kb [10] | Dose (Canis lupus familiaris) | Change in BP (Rattus norvegicus [14]) | Change in BP (Rattus norvegicus [15]) | further results
1 | COc1ccccc1N1CCN(CC(O)C2=COc3ccccc3O2)CC1 (stereo not given) | -41% | 4.84 | >45 min | -41% | >45 min | -41% |  |  |  |  | pA2 app [5]: inactive; Change in BP (Rattus norvegicus [7]): -41%
2 | CC(C)(C)NCC(O)C1=COc2ccccc2O1 (stereo not given) |  | 4.8 |  |  |  |  | 8.51 nM | 1 mg/kg |  |  | Change in BP (Rattus norvegicus [9]): -50%; Change in BP (Rattus norvegicus [11]): -57%; Duration of action (Rattus norvegicus [12]): 25 min
3 | CC(=O)Nc1ccc(OCC(O)CNC(C)C)cc1 (stereo not given) [PRACTOLOL] |  |  |  |  |  |  |  | 2.5 mg/kg | -32% | -31% | pD2 app [13]: inactive; Duration of action (Rattus norvegicus [16]): 45 min
4 | CC(C)NCC(O)C1=COc2ccccc2O1 (stereo not given) | -60% |  |  |  | >45 min |  |  |  |  |  | Change in BP (Rattus norvegicus [17]): -49%
5 | OC(CN1CCCCC1)C1=COc2ccccc2O1 (stereo not given) |  |  |  |  |  |  | 617 nM |  | -66% | -78% | Duration of action (Rattus norvegicus [18]): 20 min
6 | OC(CN1CCCCCC1)C1=COc2ccccc2O1 (stereo not given) |  |  |  |  |  |  | 1170 nM | 10 mg/kg |  |  | Change in BP (Rattus norvegicus [9]): -44%; Change in BP (Rattus norvegicus [11]): -57%; Duration of action (Rattus norvegicus [12]): 20 min
7 | Oc1nc2ccccc2n1C1CCN(CC(O)C2=COc3ccccc3O2)CC1 (stereo not given) | -43% | 4.89 | >25 min | -38% | >25 min | -43% |  | 1 mg/kg |  |  | pD2 app [13]: inactive; Change in BP (Rattus norvegicus [7]): -38%
8 | OC(CN1CCN(c2cccc(C(F)(F)F)c2)CC1)C1=COc2ccccc2O1 (stereo not given) |  |  |  |  |  |  |  | 10 mg/kg | -65% | -83% | pA2 app [19]: inactive; pD2 app [20]: inactive; Duration of action (Rattus norvegicus [18]): 20 min
9 | COc1ccc(CCNCC(O)C2=COc3ccccc3O2)cc1OC (stereo not given) |  |  | >25 min | -33% | >25 min | -37% |  | 1 mg/kg |  |  | 
10 | CC(C)NCC(O)COc1cccc2ccccc12 (stereo not given) [PROPRANOLOL] | -64% |  |  |  |  |  |  | 0.25 mg/kg |  |  | Change in BP (Rattus norvegicus [17]): -54%; Duration of action (Rattus norvegicus [16]): 30 min
